We go through six compounds from US12686668B2, “Leukotriene synthesis inhibitors” (Naegis Pharmaceuticals Inc., priority 2019, dated 2026).

Series [1] is described as follows: Solubilized concentration of compound in eye drop formulation (HPLC). The settings on record: eye drop formulation: 20% hydroxypropyl β-cyclodextrin, 0.5% HPMC, 1.6 mM EDTA in PBS. It is filed as physicochemical. Here is the method:
(§1) Eye drops were prepared by adding compounds at a theoretical concentration of 10 mg/mL to a 2 mL microcentrifuge tube before adding a stir bar and the selected formulation that consisted of (w/v) hydroxypropyl β-cyclodextrin (Trappsol) (20%), hydroxyl propyl methylcellulose (0.5%) and EDTA (1.6 mM) in phosphate buffered saline. Tubes containing compound in eye drop formulation were heated to 60-65° C. and stirred at least 4 hours to overnight. The tubes were removed from the heat bath and centrifuged at 10,000 ref for 5 minutes to clear the solution of any residual drug not in solution. The supernatant was removed from the tubes and one 10 μL sample was removed for HPLC analysis of solubilized by HPLC using an ACE C18 column (4.5 mm×150 mm, 5 m), eluted with acetonitrile/methanol/water mixture with H3PO4, pH 3.5 (50:30:20) with a flow rate of 2.5 mL/min. The solubilized concentration of each compound was calculated by interpolation from a standard curve based on reference standards solubilized in methanol when the assay was validated.
In Table 6, the data from distribution studies performed in Lewis rats show the concentration of each compound present in the retina 0.5 hr after the administration of a 10 μL drop of each topical formation is provided. Compounds were paired and individual formulations mixed at a ratio to make a mixture that contained ~2.5 mg/mL of each compound.

Series [2] can be described thus: Rat ocular distribution model, retina after topical drop. It is filed as in vivo. To be noted: Lewis rats, 10 μL topical drop. As for the experimental part: as §1
Compounds were applied as a single 10 μL drop to rats and the aqueous humor, and the posterior segment of the eye (vitreous body and retina) were collected from each eye at the time point assigned after the eye was irrigated to remove any residual formulation present. Tissues were collected in pre-weighed collection tubes and the tissue weight was determined for each sample. An internal standard (IS) mixture containing a reference compound at a ratio of 1 μL to 4 mg tissue was added to samples, mixed and then diluted×4.25 in acetonitrile:methanol (9:1). Aqueous humour samples were vortex mixed for 10 s. The vitreous body & retina were vortex mixed 2 times each for 10 s, and further mixed for 6 min on a tabletop shaker at 750 rpm followed by final vortex mixing (10 s). All samples were centrifuged to pellet any particulate matter and the supernatant was transferred to LC vials. A 10 μL sample was then applied to the HPLC during LC/MS/MS analysis. A calibration curve for compounds (0.588-176.471 ng/mL) was prepared in rat plasma to estimate concentrations of compounds in each of the matrices analyzed using the area under curve (AUC) normalized to internal standard AUC for determining response. The assumption was made that 1 mg tissue is equivalent to 1 μL plasma. Concentrations measured in each tissue were then normalized to the amount of drug applied to account for differences in solubilized drug in each formulation. The average concentration and the standard deviation was determined based on “n”=number of eyes assessed, rather than the number of animals. […]

Series [3] has as its system LTC4 production in MC/9 cells. Nature of the series: MC/9 HPLC assay, inhibition of LTC4 production. It is filed as cell-based. The settings on record: Mus musculus; for inhibition at 3 µM: MC9, 3 μM, A23187 stimulated. The procedure, abridged:
(§2)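 MC/9 cells (3×10^6 in HBSS) pre-incubated 30 min with compound, then stimulated 20 min at room temperature with 1 μM A23187. After methanol quench and C18 solid-phase extraction, LTB4 and LTC4 quantified by HPLC against reference standards; inhibition relative to control samples.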

The test system of series [4] is endogenous leukotriene production. To be noted: estimated; cited from earlier work.
For series [5], the system named is LTB4 production in MC/9 cells. Nature of the series: MC/9 HPLC assay, inhibition of LTB4 production. It is filed as cell-based. To be noted: Mus musculus. Summed up:
as §2

In series [6] the target is T1, recombinant human leukotriene A4 hydrolase enzyme (Homo sapiens, UniProt P09960).
T1 construct: purchased Cayman Chemical 10007817
T1 sequence (P09960 1-611): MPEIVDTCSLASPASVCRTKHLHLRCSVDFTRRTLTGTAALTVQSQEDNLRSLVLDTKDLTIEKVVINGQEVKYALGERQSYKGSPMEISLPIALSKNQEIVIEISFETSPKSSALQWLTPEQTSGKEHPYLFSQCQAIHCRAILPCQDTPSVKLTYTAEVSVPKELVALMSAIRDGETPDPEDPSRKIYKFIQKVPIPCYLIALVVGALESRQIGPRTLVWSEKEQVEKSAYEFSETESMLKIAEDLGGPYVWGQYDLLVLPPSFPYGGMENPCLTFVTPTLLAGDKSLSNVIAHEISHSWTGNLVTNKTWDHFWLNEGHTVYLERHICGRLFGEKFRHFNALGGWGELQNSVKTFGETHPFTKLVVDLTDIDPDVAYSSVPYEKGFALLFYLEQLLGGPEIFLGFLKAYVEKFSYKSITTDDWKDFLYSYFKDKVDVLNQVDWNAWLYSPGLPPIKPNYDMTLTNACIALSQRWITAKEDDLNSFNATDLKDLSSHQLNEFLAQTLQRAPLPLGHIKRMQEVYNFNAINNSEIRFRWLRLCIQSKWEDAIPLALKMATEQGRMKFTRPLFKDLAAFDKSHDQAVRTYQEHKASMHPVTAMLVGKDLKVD
The series is described as follows: Amino-peptidase assay, alanine-4-nitroanalide. It is filed as biochemical. The settings on record: negative values = augmented peptidase activity, read-out: % Inhibition aminopeptidase-Alanine-4-nitroanalide activity of LTA4H (3 μM). The procedure, abridged: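 Compounds pre-incubated in the dark with recombinant human LTA4H (0.5 μg) in 50 mM Tris-HCl, 100 mM KCl; reaction started with alanine-4-nitroanilide (6 mM solution). Aminopeptidase rate followed as A405 from 4-nitroaniline, referenced to a standard; inhibition calculated versus controls, with negative values indicating augmented activity.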

Series [7] concerns LTB4 production in porcine or human whole blood. Nature of the series: Whole blood HPLC assay, inhibition of LTB4 production. It is filed as cell-based. To be noted: 5 point curve, porcine or human whole blood (not specified). The procedure, abridged: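 Porcine or human whole blood was pre-incubated 30 min with compound, then stimulated 20 min at room temperature with 20 μM A23187 (porcine blood also received 20 μM arachidonic acid). Plasma LTB4 was extracted on C18 and quantified by HPLC against reference standards. IC50 from a 5-point curve, with inhibition relative to controls.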

The next series relates to AA-induced ear edema. The series is described as follows: Arachidonic acid (AA) induced mouse ear edema model. The settings on record: 4 hrs and 1 hr before AA 2 mg/ear, mice; for % Inhibition AA-Induced ear edema (1 mg/ear): topical 1 mg/ear. It is filed as in vivo, CD-1 mice. Here is the method: One group serves as a control and receives 20 μL of vehicle applied to the pinna of each ear (10 μL to the inside and 10 μL to the outside of the pinna). One or more additional groups serve as test groups. The test compound was applied to the pinna of one ear of the mouse in a 20 μL volume (10 μL to the inside and 10 μL to the outside of the pinna). Test compound or control vehicle (acetone/1% DMSO) was applied topically to the right ear 4 and 1 hour before the application of 2 mg/ear AA as a stimulus to both the inner and outer surfaces of CD-1 mice. The left ears received vehicle (acetone/1% DMSO) alone. The animal was lightly anesthetized again using isofluorane to enable application of the stimulus. For the control group, arachidonic acid (2 mg/ear) was applied as the stimulus to the pinna of one ear only, in a total volume of 20 μL of acetone (10 μL applied to the inside and 10 μL to the outside of the pinna). The other ear received 20 μL of acetone. This served to determine the increase in ear weight due to arachidonic acid in the absence of test compounds. For the test groups, arachidonic acid (2 mg/ear) was applied as the stimulus to the pinna of each ear, in a total volume of 20 μL of acetone (10 μL applied to the inside and 10 μL to the outside of the pinna). The animal was allowed to recover after application of the stimulus in each case. After 60 minutes the animal was euthanized and a standard biopsy sample was taken from each ear using a 6 mm skin biopsy punch (Acuderm). Ear edema was determined by the increase in weight of the tissue due to accumulation of fluid as a result of plasma extravasation. The ears were weighed separately using a balance suitable to record 0.1 mg. For the control group, the difference in ear weights was determined by subtracting the weight of the unstimulated ear from the stimulated ear, and this was a measure of the increase in ear weight due to edema. The percentage increase in ear weight was determined by dividing the increase in stimulated ear weight by the unstimulated ear weight and multiplying by 100. For the test groups, the difference in ear weights was determined by subtracting the weight of the untreated ear from the weight of the ear treated with test compound. The percent inhibition of the increase in ear weight for ears treated with the test compound was estimated by first subtracting the mean ear weight of the untreated controls from each tissue to determine the increase in tissue weight due to application of the arachidonic acid. The percent inhibition=1−(test drug stimulated ear (mg)/control stimulated ear (mg))×100. In Table 5, the data from inhibition of AA-induced ear edema in mice by topical application of compounds is provided. Compounds (0.3 or 1 mg/ear) were applied topically to the ear 4 hrs and 1 hr prior to application of arachidonic acid (AA; 2 mg/ear).

The mark [8] stands for this setting: MC9, Table 2 column 4, no concentration in head (1 μM according to b732), read-out: % Inhibition LTB4.
[9] abbreviates: MC9, Table 2 column 3, no concentration in head (1 μM according to b732), read-out: % Inhibition LTC4.

Structures are written as SMILES. Where two headings read alike, the source gives them in different places. A value given as a limit tells only on which side of the number the result lay.

Compound `CCC(C)(O)CCc1ccc(Oc2nc3c(SC)cccc3s2)c(OC)c1` (centres unmarked) [Compound 191, 1-(3-methoxy-4-{[4-(methylsulfanyl)-1,3-benzothiazol-2-yl]oxy}phenyl)pentan-3-methyl-3-ol] had a Concentration of compound in formulation in series [1] of 1650 µg/mL. For the same compound, in series [2], the “Concentration of compound in retina 0.5 hr after administration per mg compound applied (Avg ± SD) n = 2” value is recorded as 4872 ± 1672 ng/mL per mg compound applied. Besides, in series [3], the inhibition – broadly, the relative decrease from the control value, in per cent – at 3 µM was greater than 90%.
For the compound `CC(c1cc2ccccc2s1)N(O)C(N)=O` (centres unmarked) [Zileuton], the “Inhibition of endogenous leukotriene production” value in series [4] is on record as 26-86%.
On to `CCC(CCc1ccc(Oc2nc3ccccc3s2)cc1)N1CCCC1` (centres unmarked) [Compound 158, 2-{4-[3-(pyrrolidin-1-yl)pentyl]phenoxy}-1,3-benzothiazole], for which the values for the inhibition at 1 µM in series [5] (setting [8]) and in series [3] (setting [9]) were greater than 90% and 10 to 30%, respectively. The inhibition at 3 µM in series [6] was 50 to 75%; in series [3], less than 10%. Moreover, the IC50 (commonly the concentration at which inhibition is half-maximal) in series [7] was 100 to 1000 nM. Also, the “% Inhibition AA-Induced ear edema (1 mg/ear)” value in the series on AA-induced ear edema is 10-30%.
`CCC(O)CCc1ccc(Oc2nc3c(SC)cccc3s2)c(OC)c1` (centres unmarked) [Compound 193, 1-(3-methoxy-4-{[4-(methylsulfanyl)-1,3-benzothiazol-2-yl]oxy}phenyl)pentan-3-ol]: the inhibition at 1 µM in series [5] (setting [8]) and in series [3] (setting [9]) was greater than 90% in each case. In series [1], this compound came in with a Concentration of compound in formulation of 2530 µg/mL. In series [2], the “Concentration of compound in retina 0.5 hr after administration per mg compound applied (Avg ± SD) n = 2” value is given as 15690 ± 9863 ng/mL per mg compound applied. The compound also registered an inhibition at 3 µM in series [3] of 70 to 90%.
On to `CCC(O)(CCc1ccc(Oc2nc3c(SC)cccc3s2)cc1)C(F)(F)F` (centres unmarked) [Compound 195, 1-(4-{[4-(methylsulfanyl)-1,3-benzothiazol-2-yl]oxy}phenyl)-3-(trifluoromethyl)pentan-3-ol], for which the Concentration of compound in formulation in series [1] came out at 3640 µg/mL. In series [2], the “Concentration of compound in retina 0.5 hr after administration per mg compound applied (Avg ± SD) n = 2” value was 3343 ± 2.4 ng/mL per mg compound applied. Besides, the inhibition at 3 µM in series [3] was greater than 90%.
Consider `CCC(O)(CCc1ccc(Oc2nc3ccccc3s2)c(OC)c1)C(F)(F)F` (centres unmarked) [Compound 103, 1-[4-(1,3-benzothiazol-2-yloxy)-3-methoxyphenyl]-3-(trifluoromethyl)pentan-3-ol], for which the inhibition at 1 µM lay within 50 to 70% in series [5] (MC9, 1 μM, read-out: % inhibition LTB4 (1 μM)); 50 to 70% in series [5] (setting [8]); 50 to 70% in series [3] (MC9, 1 μM, read-out: % inhibition LTC4 (1 μM)); 50 to 70% in series [3] (setting [9]). The compound further registered an IC50 in series [7] of 1000 to 10000 nM. The inhibition at 3 µM in series [3] is greater than 90%. In addition, the “% Inhibition AA-Induced ear edema (0.3 mg/ear)” value in the series with AA-induced ear edema (topical 0.3 mg/ear) is given as 30-50%. The “% Inhibition AA-Induced ear edema (1 mg/ear)” value in the series on AA-induced ear edema is recorded as 70-90%.
